Measured values from PubChem BioAssay (NCI).
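Grown in 96-well plates, cells were treated for 48 hours with each compound at five concentrations. Insufficient inhibition: endpoint recorded as highest concentration tested. GI50 = concentration required for 50% inhibition of growth. TGI marks complete inhibition of growth.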

Assays:
Experiment in all cases: NCI-60 cell line screen, 48 h
[1] = tested on: HT29 colon
[2] = tested on: SR leukemia
[3] = tested on: 786-0 renal
[4] = tested on: HCT-116 colon
[5] = tested on: RXF 393 renal
[6] = tested on: SK-MEL-28 melanoma
[7] = tested on: DU-145 prostate
[8] = tested on: SK-OV-3 ovarian
[9] = tested on: OVCAR-4 ovarian
[10] = tested on: HL-60(TB) leukemia

SMILES: CCN(C(=O)N1CCN(c2cc3c(cc2F)c(=O)c(C(=O)O)cn3C2CC2)CC1)c1nc(-c2ccc(C)cc2)cs1
- GI50 [1]: 0.332 µM
- TGI [1]: > 100 µM
- GI50 [2]: 0.269 µM
- TGI [2]: > 100 µM
- GI50 [3]: 0.954 µM
- TGI [3]: 10.8 µM
- GI50 [4]: 1.04 µM
- TGI [4]: > 40.1 µM
- GI50 [5]: 0.38 µM
- TGI [5]: 4.2 µM
- GI50 [6]: 0.687 µM
- TGI [6]: > 100 µM
- GI50 [7]: 0.442 µM
- TGI [7]: 82.8 µM
- GI50 [8]: 1.53 µM
- TGI [8]: 19.4 µM

SMILES: CCOC(=O)C1Oc2ccc([N+](=O)[O-])c3c2C1(O)CCC3 (stereo not given)
- TGI [1]: > 100 µM
- TGI [2]: > 100 µM
- TGI [9]: > 100 µM
- TGI [3]: > 100 µM
- TGI [5]: > 100 µM
- TGI [6]: > 100 µM
- TGI [10]: > 100 µM
- TGI [8]: > 100 µM

SMILES: COc1cc2c(cc1OC(=O)CC(C)O)C1C(OC2=O)C(OC(C)=O)C=C2CCN(C)[C@H]21 (stereo not given in full)
- TGI [1]: > 100 µM
- TGI [2]: > 100 µM
- TGI [9]: > 100 µM
- TGI [3]: 53.7 µM
- TGI [4]: > 100 µM
- TGI [6]: > 100 µM
- TGI [8]: 57.2 µM

SMILES: O=C(O)C1(P(=O)(O)O)CC1
- TGI [9]: > 100 µM
- TGI [3]: > 100 µM
- TGI [4]: > 100 µM
- TGI [5]: > 100 µM
- TGI [6]: > 100 µM
- TGI [10]: > 100 µM
- TGI [8]: > 100 µM

SMILES: O=C1C(=O)N(c2ccc(Cl)c(Cl)c2)C(=O)C(=O)C1c1nc2ccccc2s1
- TGI [1]: > 100 µM
- TGI [2]: > 100 µM
- TGI [9]: > 100 µM
- TGI [3]: > 100 µM
- TGI [4]: > 100 µM
- TGI [5]: > 100 µM
- TGI [6]: > 100 µM
- TGI [8]: > 100 µM

SMILES: COc1cc2c(c(OC)c1OC)-c1ncc3cc(OC)c(OC)c(OC)c3c1C2
- GI50 [9]: 44.5 µM
- TGI [9]: > 100 µM
- GI50 [3]: 35.9 µM
- TGI [3]: > 100 µM
- GI50 [4]: 33.5 µM
- TGI [4]: > 100 µM
- GI50 [5]: 11.2 µM
- TGI [5]: 33.1 µM
- GI50 [6]: 25.4 µM
- TGI [6]: 78.1 µM
- GI50 [10]: 1.92 µM
- TGI [10]: 46 µM
- GI50 [7]: 26.6 µM
- TGI [7]: > 100 µM
- GI50 [8]: 47.5 µM
- TGI [8]: > 100 µM

SMILES: Cn1c2c(cc(S(=O)(=O)c3ccccc3)c1=O)CCc1c-2cnn1-c1ccc(Cl)cc1
- GI50 [1]: 3.31 µM
- TGI [1]: > 100 µM
- GI50 [9]: 2.5 µM
- TGI [9]: 6.71 µM
- GI50 [3]: 2.49 µM
- TGI [3]: 5.51 µM
- GI50 [4]: 4.14 µM
- TGI [4]: > 100 µM
- GI50 [5]: 1.9 µM
- TGI [5]: 3.71 µM
- GI50 [6]: 3.24 µM
- TGI [6]: 13.4 µM
- GI50 [10]: > 100 µM
- TGI [10]: > 100 µM
- GI50 [8]: 2.34 µM
- TGI [8]: 5.24 µM

SMILES: Cc1c(C#N)c(=O)[nH]c(=O)n1CCN1CCN(C(=O)NCCCCCCNC(=O)N2CCN(CCn3c(C)c(C#N)c(=O)[nH]c3=O)CC2)CC1
- TGI [1]: > 100 µM
- TGI [9]: > 100 µM
- TGI [3]: > 100 µM
- TGI [4]: > 100 µM
- TGI [5]: > 100 µM
- TGI [6]: > 100 µM
- TGI [10]: > 100 µM
- TGI [8]: > 100 µM

SMILES: O=S(=O)(c1ccccc1)C(CN1CCCCC1)S(=O)(=O)c1ccccc1
- TGI [1]: > 100 µM
- TGI [2]: > 100 µM
- TGI [9]: > 100 µM
- TGI [3]: > 100 µM
- TGI [5]: > 100 µM
- TGI [6]: > 100 µM
- TGI [10]: > 100 µM
- TGI [8]: > 100 µM

SMILES: CS(=O)(=O)Oc1cccc(/C=N/N=C(\N)NO)c1
- TGI [1]: > 100 µM
- TGI [2]: > 100 µM
- TGI [9]: > 100 µM
- TGI [3]: 54.3 µM
- TGI [4]: > 100 µM
- TGI [5]: > 100 µM
- TGI [6]: > 100 µM
- TGI [10]: 52.4 µM
- TGI [8]: 70.8 µM

SMILES: COc1cccc(NC(=O)c2sc3nc4c(cc3c2N)CN(Cc2ccccc2)CC4)c1
- GI50 [1]: 3.75 µM
- TGI [1]: 15.2 µM
- GI50 [2]: 0.453 µM
- TGI [2]: 47.7 µM
- GI50 [9]: 2.68 µM
- TGI [9]: 19.7 µM
- GI50 [3]: 3.61 µM
- TGI [3]: 20.8 µM
- GI50 [4]: 1.74 µM
- TGI [4]: > 100 µM
- GI50 [5]: 2.71 µM
- TGI [5]: 12.9 µM
- GI50 [6]: 2.8 µM
- TGI [6]: 29.7 µM
- GI50 [7]: 5.22 µM
- TGI [7]: 22.2 µM
- GI50 [8]: 2.78 µM
- TGI [8]: 14 µM

SMILES: O=C(NN1C(=O)CSC12CCCCC2)c1[nH]c2ccc(F)cc2c1-c1ccccc1
- GI50 [1]: 17.8 µM
- TGI [1]: 36.2 µM
- GI50 [9]: 22.9 µM
- TGI [9]: 70.9 µM
- GI50 [3]: 26 µM
- TGI [3]: 49.8 µM
- GI50 [4]: 16.7 µM
- TGI [4]: 31.5 µM
- GI50 [5]: 14.6 µM
- TGI [5]: 29.7 µM
- GI50 [6]: 28.2 µM
- TGI [6]: 93.2 µM
- GI50 [7]: 22.6 µM
- TGI [7]: 45.2 µM
- GI50 [8]: 35.8 µM
- TGI [8]: > 100 µM

SMILES: CCCCCCCCCCCCCCCCCC(=O)OCC(COC1OC(COP(=O)(O)O)C(O)C(O)C1O)OC(=O)CCCCCCCCCCCCCCCCC (stereo not given)
- TGI [1]: 11.7 µM
- TGI [9]: 14.5 µM
- TGI [3]: 14.9 µM
- TGI [4]: 16.2 µM
- TGI [5]: 16.8 µM
- TGI [6]: 18 µM
- TGI [10]: 21.1 µM
- TGI [7]: 16.8 µM
- TGI [8]: 15.4 µM

SMILES: C/C(=N\Nc1ccc2ccccc2n1)c1ccccn1
- GI50 [1]: < 0.0407 µM
- TGI [1]: 3.09 µM
- GI50 [2]: < 0.0335 µM
- TGI [2]: 2.38 µM
- GI50 [9]: < 0.0204 µM
- TGI [9]: 33.5 µM
- GI50 [3]: 0.1 µM
- TGI [3]: 1.69 µM
- GI50 [4]: < 0.0472 µM
- TGI [4]: 3.03 µM
- GI50 [5]: 0.229 µM
- TGI [5]: 5.86 µM
- GI50 [6]: 0.345 µM
- TGI [6]: 16.2 µM
- GI50 [7]: 0.107 µM
- TGI [7]: 5.25 µM
- GI50 [8]: 0.132 µM
- TGI [8]: 13.6 µM

SMILES: CCCCCCCCCCCC(=O)OCCOCCOCCOCCOCCOCc1ccc(OC)cc1
- TGI [1]: > 100 µM
- TGI [2]: > 100 µM
- TGI [9]: > 100 µM
- TGI [3]: > 100 µM
- TGI [4]: > 100 µM
- TGI [5]: > 100 µM
- TGI [6]: > 100 µM
- TGI [10]: 51.7 µM
- TGI [8]: > 100 µM

SMILES: CN(C)c1nc(=Nc2ccc3ccccc3c2)ss1
- TGI [2]: 75.3 µM
- TGI [9]: > 100 µM
- TGI [3]: > 100 µM
- TGI [4]: > 100 µM
- TGI [5]: > 100 µM
- TGI [6]: > 100 µM
- TGI [10]: 54.7 µM
- TGI [8]: > 100 µM

SMILES: CCOC(=O)C(C)(c1cn(C)c2ccccc12)c1cn(C)c2ccccc12
- TGI [1]: > 100 µM
- TGI [9]: > 100 µM
- TGI [3]: > 100 µM
- TGI [4]: > 100 µM
- TGI [5]: > 100 µM
- TGI [6]: > 100 µM
- TGI [10]: > 100 µM
- TGI [8]: > 100 µM

SMILES: COc1ccc(OC)c(NC(=O)CCC/C(CC(=O)c2ccc(O)c(OC)c2)=N\NC(=O)C[N+](C)(C)C)c1
- TGI [1]: > 100 µM
- TGI [2]: > 100 µM
- TGI [9]: > 100 µM
- TGI [3]: > 100 µM
- TGI [6]: > 100 µM
- TGI [10]: > 100 µM
- TGI [8]: > 100 µM

SMILES: Clc1cc(Cl)c(OCC#CI)cc1Cl
- GI50 [1]: 2.1 µM
- TGI [1]: 5.66 µM
- GI50 [3]: 1.69 µM
- TGI [3]: 3.39 µM
- GI50 [4]: 1.75 µM
- TGI [4]: 3.47 µM
- GI50 [5]: 2.37 µM
- TGI [5]: 6.28 µM
- GI50 [6]: 2.12 µM
- TGI [6]: 5.14 µM
- GI50 [10]: 2 µM
- TGI [10]: 5.22 µM
- GI50 [7]: 3.01 µM
- TGI [7]: 10 µM
